Experiment [1] addresses T1, histamine H4 receptor (Homo sapiens, UniProt Q9H3N8).
T1 construct: expressed in transfected cells; host or cells: CHO cells
Briefly: H4 binding, method 2 ([3H]-histamine binding with Ysi WGA beads on CHO cell membranes). Particulars: for Ki: H4 binding, method 2, Ki calculated from IC50 (Cheng-Prussoff). The method, then: Cell pellets from CHO cells expressing the histamine H4 receptor were homogenised in ice-cold 50 mM Tris-HCl/0.5 mM CaCl2 buffer containing a protease inhibitor cocktail (Roche®, United Kingdom) using a ground glass homogeniser. Homogenates were centrifuged at 48000 g for 30 min at 4° C. The membrane pellet was resuspended in fresh buffer and the centrifugation step was repeated as described above. The membrane pellet was resuspended in 50 mM Tris-HCl in the same volume as the original cell pellet. Aliquots of membrane preparations were stored at −80° C. and were used for [^3H]-Histamine binding experiments.
Cell membranes (15 μg/well) were pre-incubated for 120 min shaking at 4° C. with Ysi WGA beads (250 μg/well) in 50 mM Tris-HCl (pH 7.4) followed by centrifugation at 1500 rpm for 5 minutes and resuspension in 50 mM Tris-HCl (pH 7.4). The membrane/bead mixture (15 μg membrane/250 μg beads well) was incubated for 90 minutes shaking at room temperature with 6.5 nM [2,5-^3H] Histamine dihydrochloride (30-60 Ci/mmol) in 50 mM Tris-HCl (pH 7.4), with or without competing H4 ligands. Non-specific binding was defined with 10 μM JNJ7777120. Bound radiolabel was determined using scintillation counting techniques after 90 minutes.

Experiment [2] concerns the target T1, histamine H4 receptor. Briefly: H4 binding, method 1 ([3H]-histamine filtration binding on CHO cell membranes). The conditions noted are these: for Ki: H4 binding, method 1, Ki calculated from IC50 (Cheng-Prussoff); for inhibition at 20 µM: 1.5 h. In outline:
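Membranes from CHO cells expressing human H4 receptor (20-35 μg/well) incubated 90 min at room temperature with 3 nM [3H]-histamine in 50 mM Tris-HCl pH 7.4, ± competitor. Bound label separated by filtration on PEI-soaked GF/B filters and counted by scintillation; non-specific binding with 10 μM JNJ7777120.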

Structures are written as SMILES.

T1 sequence (Q9H3N8 whole entry): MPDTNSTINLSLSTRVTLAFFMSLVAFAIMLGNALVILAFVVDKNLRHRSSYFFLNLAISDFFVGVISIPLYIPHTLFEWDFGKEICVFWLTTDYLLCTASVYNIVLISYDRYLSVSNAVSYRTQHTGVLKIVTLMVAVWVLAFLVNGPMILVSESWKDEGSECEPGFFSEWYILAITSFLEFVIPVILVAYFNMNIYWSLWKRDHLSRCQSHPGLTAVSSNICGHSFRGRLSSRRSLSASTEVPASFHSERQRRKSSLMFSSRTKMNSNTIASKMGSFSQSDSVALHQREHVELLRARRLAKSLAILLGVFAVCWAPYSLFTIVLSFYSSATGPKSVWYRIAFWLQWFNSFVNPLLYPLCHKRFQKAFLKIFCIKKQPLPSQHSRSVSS

As a reminder, the Ki is a measure of affinity in units of concentration, obtained from inhibition or displacement. For `CC(C)(C)CNc1cc(N2CCC(N3CCCC3)C2)nc(N)n1` (stereo not shown) [Example 327, 6-[(3-S)-1,3′-Bipyrrolidin-1′-yl]-N^4-(2,2-dimethylpropyl)pyrimidine-2,4-diamine], in experiment [1] (read-out: Method 2 (Ki (nM))), the Ki was 376 nM.

In the case of `CNC1CN(c2cc(NCc3ccc(C)cc3)nc(N)n2)C1` [Example 88, 6-[3-(Methylamino)azetidin-1-yl]-N^4-(4-methylbenzyl)pyrimidine-2,4-diamine], the Ki in experiment [1] (read-out: Method 2 (Ki (nM))) was 35.8 nM.

On to `CNC1CN(c2cc(NCc3ccc(Cl)cc3)nc(N)n2)C1` [Example 81, N^4-(4-Chlorobenzyl)-6-[3-(methylamino)azetidin-1-yl]pyrimidine-2,4-diamine], for which the inhibitory constant (Ki) in experiment [1] (read-out: Method 2 (Ki (nM))) was 12.1 nM.

In the case of `CCNc1cc(N2CC[C@@H](N(C)C)C2)ncn1` [Example 21, 6-[(3R)-3-(Dimethylamino)pyrrolidin-1-yl]-N-ethyl-pyrimidin-4-amine], in experiment [1] (read-out: Method 2 (Ki (nM))), the Ki is 722 nM.

With `c1nc(NCC2CC2)cc(N2C[C@H]3CCCN[C@H]3C2)n1` (relative stereo) [Example 123, N-(Cyclopropylmethyl)-6-[(4aR*,7aR*)-octahydro-6H-pyrrolo[3,4-b]pyridin-6-yl]pyrimidin-4-amine], the inhibitory constant (Ki) in experiment [1] (read-out: Method 2 (Ki (nM))) was 103 nM.

Turning to `c1nc(NC[C@@H]2CCCO2)cc(N[C@@H]2CCNC2)n1` [Example 341, N-[(3R)-Pyrrolidin-3-yl]-N′-[(2S)-tetrahydrofuran-2-ylmethyl]pyrimidine-4,6-diamine], in experiment [1] (read-out: Method 2 (Ki (nM))), the Ki is 16300 nM.

Take `CNC1CN(c2cc(NCc3ccccc3C(F)(F)F)nc(N)n2)C1` [Example 84, 6-[3-(Methylamino)azetidin-1-yl]-N^4-[2-(trifluoromethyl)benzyl]pyrimidine-2,4-diamine]: the Ki in experiment [1] (read-out: Method 2 (Ki (nM))) is 21.7 nM.

Take `C[C@H]1CN(c2cc(NCC(C)(C)C)nc(N)n2)CCN1` [Example 96, N^4-(2,2-Dimethylpropyl)-6-[(3S)-3-methylpiperazin-1-yl]pyrimidine-2,4-diamine]: the inhibitory constant (Ki) in experiment [1] (read-out: Method 2 (Ki (nM))) was 3.77 nM.

As for `CN1CCC(Nc2cc(NCCC(C)(C)C)ncn2)CC1` [Example 343, N-(3,3-Dimethylbutyl)-N′-(1-methylpiperidin-4-yl)pyrimidine-4,6-diamine], in experiment [1] (at 40 μM), the “Method 2, % at 40 μM” value came to 53% at 40 μM.

For `CC(C)CNc1cc(N2C[C@H]3CCCN[C@H]3C2)nc(N)n1` (racemic) [Example 27, N^4-Isobutyl-6-[(4aR*,7aR*)-octahydro-6H-pyrrolo[3,4-b]pyridin-6-yl]pyrimidine-2,4-diamine], the Ki in experiment [1] (Method 2 (Ki (nM))) was 22.4 nM.

For `c1ccc(CNc2cc(N[C@@H]3CCNC3)ncn2)cc1` [Example 337, N-Benzyl-N′-[(3R)-pyrrolidin-3-yl]pyrimidine-4,6-diamine], the inhibition constant (Ki) in experiment [1] (read-out: Method 2 (Ki (nM))) is 7220 nM.

Consider `CN1C[C@@H]2CN(c3cc(NCCC(C)(C)C)nc(N)n3)C[C@@H]2C1` [Example 40, N^4-(3,3-Dimethylbutyl)-6-[(3aR*,6aS*)-5-methylhexahydro-pyrrolo[3,4-c]pyrrol-2(1H)-yl]pyrimidine-2,4-diamine], for which the Ki in experiment [1] (read-out: Method 2 (Ki (nM))) was 192 nM.

As to `CNC1CN(c2cc(NCc3ccccc3C)nc(N)n2)C1` [Example 82, 6-[3-(Methylamino)azetidin-1-yl]-N^4-(2-methylbenzyl)pyrimidine-2,4-diamine], the Ki in experiment [1] (read-out: Method 2 (Ki (nM))) was 9.68 nM.

For `CNc1cc(N2C[C@H]3CCCN[C@H]3C2)nc(N)n1` (racemic) [Example 25, N^4-Methyl-6-[(4aR*,7aR*)-octahydro-6H-pyrrolo[3,4-b]pyridin-6-yl]pyrimidine-2,4-diamine], the Ki in experiment [1] (read-out: Method 2 (Ki (nM))) was 154 nM.

With `CN[C@@H]1CCN(c2cc(NCC3CC3)nc(N)n2)C1` [Example 167, N^4-(Cyclopropylmethyl)-6-[(3R)-3-(methylamino)pyrrolidin-1-yl]pyrimidine-2,4-diamine], the inhibition constant (Ki) in experiment [2] is 6.3 nM.

Consider `CN[C@@H]1CCN(c2cc(N3CCOCC3)nc(N)n2)C1` [Example 282, 4-[(3R)-3-(Methylamino)pyrrolidin-1-yl]-6-morpholin-4-ylpyrimidin-2-amine], for which the inhibition constant Ki in experiment [2] is 1660 nM.

As for `CC(C)CNc1cc(N2CCCN(C)CC2)nc(N)n1` [Example 135, N^4-Isobutyl-6-(4-methyl-1,4-diazepan-1-yl)pyrimidine-2,4-diamine], the Ki in experiment [2] was 1.13 nM.

Turning to `CN[C@@H]1CCN(c2cc(NCc3cc(F)ccc3F)nc(N)n2)C1` [Example 245, N^4-(2,5-Difluorobenzyl)-6-[(3R)-3-(methylamino)pyrrolidin-1-yl]pyrimidine-2,4-diamine], the Ki in experiment [2] was 298 nM.

For `CNc1cc(N2CC[C@@H]3NCC[C@@H]3C2)nc(N)n1` (racemic) [Example 200, N^4Methyl-6-[(3aR*,7aS*)-octahydro-5H-pyrrolo[3,2-c]pyridin-5-yl]pyrimidine-2,4-diamine], the inhibition constant Ki in experiment [2] is 34 nM.

With `CC(C)Nc1cc(N2CCN(C)CC2)ncn1` [Example 104, N-Isopropyl-6-(4-methylpiperazin-1-yl)pyrimidin-4-amine], the Ki in experiment [2] was 118 nM.

`CN[C@H]1[C@@H]2CN(c3cc(NCCC(C)(C)C)nc(N)n3)C[C@@H]21` [Example 309, N^4-(3,3-Dimethylbutyl)-6-[(1R,5S,6s)-6-(methylamino)-3-azabicyclo[3.1.0]hex-3-yl]pyrimidine-2,4-diamine]: in experiment [2] (at 10 μM), the “Method 1, % at 10 μM” value is 26% at 10 μM.

Broadly, the inhibition is the drop in the measured response relative to a control, in per cent. Read a low inhibition as little suppression. In experiment [2], `CCCNc1cc(N2CCCC(NC)C2)nc(N)n1` (stereo not shown) [Example 323, 6-[3-(Methylamino)piperidin-1-yl]-N^4-propylpyrimidine-2,4-diamine] came in with an inhibition at 20 µM of 85%.

In the case of `CCCNc1cc(N2CC(NC)C2)nc(N)n1` [Example 73, 6-[3-(Methylamino)azetidin-1-yl]-N^4-propylpyrimidine-2,4-diamine], the inhibitory constant (Ki) in experiment [2] was 0.88 nM.

Regarding `Nc1nc(NCC2CC2)cc(N2CC[C@@H]3NCC[C@@H]3C2)n1` (racemic) [Example 188, N^4-(Cyclopropylmethyl)-6-[(3aR*,7aS*)-octahydro-5H-pyrrolo[3,2-c]pyridin-5-yl]pyrimidine-2,4-diamine], the inhibitory constant (Ki) in experiment [2] is 25.5 nM.

For the compound `CCCC(C)Nc1cc(N2CC(NC)C2)nc(N)n1` (stereo not shown) [Example 158, 6-[3-(Methylamino)azetidin-1-yl]-N^4-(1-methylbutyl)pyrimidine-2,4-diamine], in experiment [2], the inhibition constant Ki was 2.59 nM.

As for `CCNc1cc(N2CCCC(NC)C2)nc(N)n1` (stereo not shown) [Example 324, N^4-Ethyl-6-[3-(methylamino)piperidin-1-yl]pyrimidine-2,4-diamine], in experiment [2], 20 µM produced 55% inhibition.

With `CC(C)(C)CCNc1cc(N2CCC(N)C2)ncn1` (stereo not shown) [Example 292, 6-(3-Aminopyrrolidin-1-yl)-N-(3,3-dimethylbutyl)pyrimidin-4-amine], the Ki in experiment [2] was 2590 nM.

In experiment [2], `CNc1cc(N2CCCC(NC)C2)nc(N)n1` (stereo not shown) [Example 321, N^4-Methyl-6-[3-(methylamino)piperidin-1-yl]pyrimidine-2,4-diamine] had an inhibition at 20 µM of 15%.

Regarding `C[C@H]1CN(c2cc(NCc3ccccc3F)nc(N)n2)CCN1` [Example 213, N^4-(2-Fluorobenzyl)-6-[(3S)-3-methylpiperazin-1-yl]pyrimidine-2,4-diamine], the inhibition constant (Ki) in experiment [2] was 52.9 nM.

`CN[C@@H]1CCN(c2cc(NC3(C)CC3)nc(N)n2)C1` [Example 149, 6-[(3R)-3-(Methylamino)pyrrolidin-1-yl]-N^4-(1-methylcyclopropyl)pyrimidine-2,4-diamine]: the inhibitory constant (Ki) in experiment [2] is 5.2 nM.

With `CNc1cc(N2CC(C)(NC)C2)nc(N)n1` [Example 248, N^4-Methyl-6-[3-methyl-3-(methylamino)azetidin-1-yl]pyrimidine-2,4-diamine], in experiment [2], the Ki is 329 nM.

Values taken from patent US7943628B2, “Pyrimidine derivatives” (Pfizer Limited, priority 2005, dated 2011).
